Reference: US20160195544A1, “METHOD OF DIAGNOSING SEPSIS OR SEPSIS RISK” (UNIVERSITY OF ROCHESTER, priority 2013, published 2016)

What was measured:
VLA-3 [1] = target: T1, VLA-3 (Mus musculus, UniProt P09055+Q62470); experiment: Multiphoton intravital microscopy (MP-IVM) of fMLP-superfused cremaster vessels of LysM-GFP mice; format: in vivo; conditions: fMLP 1 μM superfusion, 88 μg IV
T1 construct: endogenous in cells; host or cells: neutrophils and other tissues of live mice (C57BL/6; LysM-GFP bone marrow chimeras)
T1 sequence (Q62470 33-1053): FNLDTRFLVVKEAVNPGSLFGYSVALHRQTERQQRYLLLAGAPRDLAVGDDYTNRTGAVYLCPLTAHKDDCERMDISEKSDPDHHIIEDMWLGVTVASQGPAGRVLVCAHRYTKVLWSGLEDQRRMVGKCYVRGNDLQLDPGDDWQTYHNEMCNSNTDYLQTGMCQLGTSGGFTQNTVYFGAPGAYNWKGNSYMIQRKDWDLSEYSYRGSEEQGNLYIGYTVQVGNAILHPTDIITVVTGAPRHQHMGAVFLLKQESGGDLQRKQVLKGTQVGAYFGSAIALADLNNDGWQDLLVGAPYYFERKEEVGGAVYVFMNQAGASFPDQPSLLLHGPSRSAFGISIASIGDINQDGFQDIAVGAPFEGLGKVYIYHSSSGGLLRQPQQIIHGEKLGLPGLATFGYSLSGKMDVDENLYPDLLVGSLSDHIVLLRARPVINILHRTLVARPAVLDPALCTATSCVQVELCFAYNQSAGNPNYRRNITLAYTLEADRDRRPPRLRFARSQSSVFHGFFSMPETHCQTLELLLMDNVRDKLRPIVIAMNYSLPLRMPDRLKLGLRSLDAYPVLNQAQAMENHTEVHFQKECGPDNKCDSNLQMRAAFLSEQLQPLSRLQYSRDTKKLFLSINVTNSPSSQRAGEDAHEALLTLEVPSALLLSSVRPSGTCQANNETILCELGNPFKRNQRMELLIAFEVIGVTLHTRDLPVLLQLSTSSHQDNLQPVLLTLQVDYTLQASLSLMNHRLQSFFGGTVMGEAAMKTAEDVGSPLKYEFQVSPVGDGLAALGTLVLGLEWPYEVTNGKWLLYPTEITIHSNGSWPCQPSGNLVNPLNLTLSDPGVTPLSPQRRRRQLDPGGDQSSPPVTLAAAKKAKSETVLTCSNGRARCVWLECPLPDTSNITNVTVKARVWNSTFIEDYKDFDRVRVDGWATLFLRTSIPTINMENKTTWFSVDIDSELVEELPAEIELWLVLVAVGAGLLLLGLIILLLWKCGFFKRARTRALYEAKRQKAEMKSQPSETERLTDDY
T1 sequence (P09055 21-798): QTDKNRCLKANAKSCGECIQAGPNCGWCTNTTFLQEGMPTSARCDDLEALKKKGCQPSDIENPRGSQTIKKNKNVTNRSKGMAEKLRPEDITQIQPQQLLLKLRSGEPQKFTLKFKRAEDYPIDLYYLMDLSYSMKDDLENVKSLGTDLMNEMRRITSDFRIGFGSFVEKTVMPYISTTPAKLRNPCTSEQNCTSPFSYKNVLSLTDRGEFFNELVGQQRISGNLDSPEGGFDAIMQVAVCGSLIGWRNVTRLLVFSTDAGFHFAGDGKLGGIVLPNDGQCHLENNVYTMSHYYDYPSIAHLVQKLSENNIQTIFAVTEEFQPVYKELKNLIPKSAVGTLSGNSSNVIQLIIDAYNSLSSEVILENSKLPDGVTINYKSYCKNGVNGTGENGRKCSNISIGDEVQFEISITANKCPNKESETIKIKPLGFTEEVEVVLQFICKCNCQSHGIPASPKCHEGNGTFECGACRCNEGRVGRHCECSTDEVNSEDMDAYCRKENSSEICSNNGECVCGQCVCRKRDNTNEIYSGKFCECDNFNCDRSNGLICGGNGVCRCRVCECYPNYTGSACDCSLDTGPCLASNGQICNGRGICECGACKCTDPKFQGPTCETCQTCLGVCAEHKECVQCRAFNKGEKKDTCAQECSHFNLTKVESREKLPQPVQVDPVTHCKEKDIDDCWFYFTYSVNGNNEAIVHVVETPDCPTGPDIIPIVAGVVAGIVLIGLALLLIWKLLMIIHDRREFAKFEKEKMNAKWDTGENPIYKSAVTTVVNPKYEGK
From the text: For MP-IVM of Lysozyme M (LysM)-GFP mice (Faust et al., “Insertion of Enhanced Green Fluorescent Protein Into the Lysozyme Gene Creates Mice With Green Fluorescent Granulocytes and Macrophages,” Blood 96:719-726 (2000), the disclosure of which is incorporated herein by reference in its entirety) in which granulocytes and monocytes express GFP were used. In order to accurately track morphological changes and migration velocities of individual extravasating leukocytes, mixed bone marrow chimera mice were generated using 80% WT and 20% LysM-GFP bone marrow into irradiated WT recipient mice to reduce the density of fluorescent cells during imaging. 8 weeks after bone marrow transfer to the irradiated recipient mice, the mice were then used for in vivo imaging. Cremaster muscle was prepared for imaging as previously described (Sumagin et al., “Leukocyte-Endothelial Cell Interactions are Linked to Vascular Permeability Via ICAM-1-Mediated Signaling,” Am. J. Physiol. Heart Circ. Physiol. 295:H969-H977 (2008), the disclosure of which is incorporated herein by reference in its entirety). Briefly, mice were anesthetized with pentobarbital sodium (65 mg/kg IP) and maintained on isoflorane inhalation anesthesia. The body temperature was maintained by placing the animal on a warming pad set. […] Imaging data were analyzed with velocity software (PerkinElmer).

VLA-3 [2] = target: T1, VLA-3; experiment: CLP (cecal ligation and puncture) sepsis mouse model, VLA-3 blocking with peptide; format: in vivo
Description: (§1) Endotoxemia and CLP were performed according to Animal Resource Protocol approved by the Committee at University of Rochester. For endotoxemia assay, 8-12-wk-old C57BL/6 (Harlan) male mice were weighed and LPS (E. coli […], Sigma-Aldrich) was administered by intra peritoneal (IP) injection to achieve LD90 mortality rate. CLP survival surgery was performed under isofluorane inhalation anesthesia. Caecum was ligated and punctured through and through with a 21-gauge needle. All the mice were resuscitated with 1 ml lactated Ringers injected subcutaneously. For VLA-3 blocking experiments, LXY2 (88 μg) (CysD-AspD-Gly-Tyr(3-NO2)-Gly-4Hyp-Asn-CysD) where the amino acids may be D amino acids, or control (88 μg) (Peptide International) peptides were administered intravenously (IV) at 2 hours and by IP at 8 hours, 32 hours following CLP or endotoxemia. Survival was monitored for 120 hours.
For flow cytometry measurement of the integrin expression on neutrophil, bone marrow (BM), peritoneal Lavage (PL), peripheral blood and lungs were isolated from naïve and septic mice at the indicated time points and subsequently single-cell suspensions were prepared. RBC lysis was performed using ACK lysing buffer (Invitrogen, San Diego, Calif.). The Fc receptors were blocked with unconjugated anti-CD16/32 (eBioscience, San Diego, Calif.) for 30 minutes. Samples were stained with Alexafluor 488 labeled anti-Gr1 (Invitrogen). Allophycocyanin (APC) labeled Ly6G (BD Biosciences), PerCp-Cy5.5 labeled anti-CD11b (eBioscience, San Diego, Calif.,), fluorescein isothiocyanate (FITC) anti-F4/80 (eBioscience, San Diego, Calif., USA), purified goat anti-mouse integrin α3/CD49c (R&D Systems), PE-anti-mouse integrin α2/CD49b, α5/CD49e, αv/CD51, APC-anti-mouse integrin α6/CD49f and PE conjugated donkey anti-goat IgG (Santa Cruz) antibodies were used. All samples were fixed with 3.7% formaldehyde and collected on FACS Calliber flow cytometer (BD Biosciences, San Diego, Calif.). Data were analyzed using Flow Jo software.
Peritoneal lavage was collected after injection of 10 ml PBS into the peritoneum. […] Colony count for each group was expressed as CFU/ml.
Serum from individual mice was collected at the indicated time points and the level of IL-6 was determined by standard sandwich ELISA protocol. […] The color reaction was developed using TMB (Thermo Scientific, Rockford, Ill.) and measured with an ELISA reader (Kinetic microplate reader; Molecular Devices) at 450 nm.
All values are expressed as the mean±SEM. Data from human samples were analyzed by one-way ANOVA. Data from murine experiments were analyzed by paired non-parametric t-test (Wilcoxon test). Survival curves were analyzed by the Kaplan-Meyer log-rank test. […]

VLA-3 [3] = target: T1, VLA-3; experiment: Transmission electron microscopy of fMLP-superfused cremaster microvasculature; format: in vivo; conditions: 88 μg IV
Description: Leukocyte extravasation was first observed on the fMLP-stimulated cremaster venules of LysM-GFP mice by MP-IVM. LXY2 (88 μg) peptide was injected IV when extravasating cells were noticed. The cremaster was then immediately dissected from the body post-euthanization and fixed with 2.5% glutaraldehyde. The tissue was further processed for transmission electron microscopy at the Electron Microscope Research Core at the University of Rochester for transmission electron microscopy.

VLA-3 [4] = target: T1, VLA-3; experiment: LPS-induced endotoxemia mouse model, VLA-3 blocking with peptide; format: in vivo; conditions: endotoxemia mice, 8 hours, 88 μg peptide, vs control peptide
Description: as §1
For flow cytometry measurement of the integrin expression on neutrophil, bone marrow (BM), peritoneal Lavage (PL), peripheral blood and lungs were isolated from naïve and septic mice at the indicated time points and subsequently single-cell suspensions were prepared. RBC lysis was performed using ACK lysing buffer (Invitrogen, San Diego, Calif.). The Fc receptors were blocked with unconjugated anti-CD16/32 (eBioscience, San Diego, Calif.) for 30 minutes. […] Data were analyzed using Flow Jo software.

[5] = system: neutrophils isolated from healthy donors; experiment: In vitro stimulation of neutrophils from healthy donors, VLA-3 expression by RT-PCR and flow cytometry; format: cell-based; conditions: human neutrophils, 1 and 3 hours of stimulation, PMA 20 ng/ml, LPS 100 μg/ml
From the text: Blood was collected from healthy volunteers via antecubital vein puncture in heparin containing vacutainers. Granulocytes and erythrocytes were separated from whole blood by centrifugation through 1-step Polymorphs (Fresenius Kabi Norge AS) density gradient. Remaining erythrocytes were removed by hypotonic lysis, yielding a neutrophil purity of >98%. The Human Research Studies Review Board of the University of Rochester approved this study, and informed consent was obtained in accordance with the Declaration of Helsinki To measure integrin expression, neutrophils were stimulated with PMA (20 ng/ml), TNF-α (20 ng/ml), LPS (100 μg/ml) or fMLP (1 μM for 1 hour or 3 hours in L15 (Leibovitz) medium with glucose at 37° C. temperatures.
Total RNA was prepared from human neutrophils or sorted mouse bone marrow granulocytes using RNeasy Mini Kit (QIAGEN, Valencia, Calif.). Similarly, RNA was reverse transcribed by using murine leukemia virus reverse transcriptase (Life Technologies, Bethesda, Md.), with oligo(dT) as the primer (Invitrogen, San Diego, Calif.). All cDNAs were divided into aliquots and stored at −20° C. until further use. Quantitation of integrins α3 and α2 on human neutrophils and IL-6, IL-β and TNFα mRNA were performed using TaqMan® Gene Expression Assays (Applied Biosystems). […] RQ values were analyzed using software.

Compound: CysD-AspD-Gly-Tyr(3-NO2)-Gly-4Hyp-Asn-CysD [LXY2]
- neutrophil extravasation in response to fMLP (VLA-3 [1]): dramatically reduced
- survival / sepsis lethality (VLA-3 [2]; CLP and endotoxemia mice, 88 μg IV at 2 hours and IP at 8 and 32 hours, survival monitored 120 hours, Kaplan-Meyer log-rank): protected mice from sepsis lethality
- number of tissue-infiltrating neutrophils (PL and lungs) (VLA-3 [2]; mice with CLP-induced sepsis, 8 hours after CLP, 88 μg/dose IV, vs control peptide): significantly reduced
- local bacterial clearance (bacterial load in PL) (VLA-3 [2]; septic mice, PL streaked on TSA blood agar, colonies counted after 24 hours): without altering
- levels of the IL-6 cytokine in the serum (VLA-3 [2]; septic mice, sandwich ELISA): reduced
- location of neutrophils in the vessel wall (ultrastructural analysis) (VLA-3 [3]): majority of neutrophils accumulated within the space between the endothelium and the basement membrane
- number of tissue-infiltrating neutrophils (PL) (VLA-3 [4]): significantly reduced

Compound: CCCCCCCCCCCCCC(=O)O[C@@H]1[C@@H](C)[C@@]2(O)[C@@H](C=C(CO)C[C@]3(O)C(=O)C(C)=C[C@@H]23)[C@@H]2C(C)(C)[C@]12OC(C)=O [PMA]
- mRNA level of VLA-3 ([5]; RT-PCR): significant increases
- protein (cell-surface) level of VLA-3 ([5]; flow cytometry): significant increases
